{"source": "patent US5547935A", "about": "(Chiron Corporation, priority 1994, dated 1996)", "key": {"[1]": {"experiment": "EGF biological activity, test not specified", "excerpt": "C. […] EGF-D represents the 52-amino acid sequence obtained by removing the C-terminal arg, while EGF-B corresponds to EGF-D wherein the C-terminal arg-leu has been removed. EGF-C appears to be EGF-D in which Met21 has been oxidized, while EGF-A appears to be EGF-B with Met21 oxidized. EGF-D is reported to be stable when stored as a lyophilized powder.\nEGF may also be altered by adding an N-terminal extension. EGF-flag (.phi.EGF) derivatives have the additional sequence […], which permits rapid purification of peptides by affinity chromatography on anti-flag MAb columns (International Biotechnology Inc.)."}, "[2]": {"target": "T1, EGF receptor on fixed A431 cells (Homo sapiens, UniProt P00533)", "T1 construct": "Confluent A43 1 cells were fixed in 96-well microtiter plates using 0.05% formaldehyde; endogenous in cells; host or cells: A431 cells, formaldehyde-fixed", "experiment": "Receptor affinity: binding to fixed A431 cells", "details": "1 nM, 2 hr at 37° C.", "experimental": "Confluent A43 1 cells were fixed in 96-well microtiter plates using 0.05% formaldehyde for 10 min at room temperature, then washed 3× with 200 μL PBS with 0.1% bovine serum albumin (BSA).\nThe wells were then washed 3× with 200 μL of PBS/0.1% BSA, detached, and counted in a gamma counter."}, "[3]": {"test_system": "Human foreskin fibroblasts", "experiment": "Mitogenicity: 3H-thymidine incorporation", "type": "cell-based", "experimental": "Mitogenicity was assayed substantially following the method described by D. J. Knauer et al, J Biol Chem (1984) 259:5623-31.\nHuman foreskin fibroblasts were obtained and frozen at the thirteenth passage. Thawed cells are trypsinized, pelleted, and resuspended in a medium containing DMEM, 5% FBS, 1 mM sodium pyruvate, 300 μg/mL L-glutamine, 100 U/mL penicillin, and 100 μg/mL streptomycin. The cells are counted using a hemocytometer and 0.4% trypan blue. The cell concentration is adjusted to 1×10^-5 cells/mL using the same medium, and dispensed onto microtiter plates (100 μL/well). The plates are incubated for 5 days in a tissue culture incubator.\nEGF muteins prepared in Example 1 and native sequence EGF are dissolved to make 100 μg/mL solutions. These solutions are used to make serial dilutions of 20, 10, 5, 2.5, 1.25, 0.625, 0.3125, 0.15625, 0.078125, 0.0390625, 0.0195, and 0.00975 ng/mL. Ten μL of each dilution is added to a microtiter plate well, and the plates returned to the incubator and incubated at 37° C. for 18 hours. The cells are then pulsed with ^3 H-thymidine (^3 H-T), by adding 10 μL of ^3 H-T (100 μCi/mL) to each well, and incubating for 24 hours. The ^3 H-T is then expelled, and the plates rinsed twice with PBS. To fix the cells, the plates are then incubated twice with 5% trichloroacetic acid (TCA) for 15 minutes at room temperature, followed by incubation twice with 100% MeOH. The plates are then air-dried.\nThe well contents are then solubilized using 0.3 N NaOH (50 μL/well) for 30 minutes, and transferred to scintillation vials. Scintillation fluid (Ready-Solv EP, 4 mL) is then added to each vial, and the vials counted for 1 min with a 0-1,000 (^3 H) window in a Beckman LS3801 counter."}, "[4]": {"details": "forms isolated from recombinant yeast culture; cited from earlier work"}, "[5]": {"details": "stored as a lyophilized powder; cited from earlier work"}}}
{"substance": ".phi.EGF-E12: flag-extended EGF mutein with Glu for Gly12 (NSDSECPLSHDEYCLHDGVCMYIEALDKYACNCVVGYIGERCQYRDLKWWELR; not fully specified; Epidermal growth factor N-terminal FLAG extension; UniProt P01133 971-1023, looked up, variant G12E)", "values": [{"measurement": "biological activity of EGF-flag derivatives", "setting": "[1]", "result": "biologically active"}]}
{"substance": ".phi.EGF-Q12: flag-extended EGF mutein with Gln at position 12 (NSDSECPLSHDQYCLHDGVCMYIEALDKYACNCVVGYIGERCQYRDLKWWELR; not fully specified; Epidermal growth factor N-terminal FLAG extension; UniProt P01133 971-1023, looked up, variant G12Q)", "values": [{"measurement": "Affinity", "setting": "[2]", "result": "154 percentage of control (EGF)"}, {"measurement": "Mitogenicity", "setting": "[3]", "result": "286 percentage of control (EGF)"}]}
{"substance": "EFG: wild-type human epidermal growth factor, 53-amino acid protein; control of Table 1 [reference compound]", "values": [{"measurement": "Mitogenicity", "setting": "[3]", "result": "100 percentage of control (EGF)"}]}
{"substance": "EGF-A41: EGF mutein with Ala at position 41", "values": [{"measurement": "Mitogenicity", "setting": "[3]", "result": "< 0.4 percentage of control (EGF)"}]}
{"substance": "EGF-A15: EGF mutein with Ala at position 15", "values": [{"measurement": "Mitogenicity", "setting": "[3]", "result": "3 percentage of control (EGF)"}]}
{"substance": ".phi.EGF-W13: flag-extended EGF mutein with Trp for Tyr13 (NSDSECPLSHDGWCLHDGVCMYIEALDKYACNCVVGYIGERCQYRDLKWWELR; not fully specified; Epidermal growth factor N-terminal FLAG extension; UniProt P01133 971-1023, looked up, variant Y13W)", "values": [{"measurement": "Affinity", "setting": "[2]", "result": "73 percentage of control (EGF)"}, {"measurement": "biological activity of EGF-flag derivatives", "setting": "[1]", "result": "biologically active"}, {"measurement": "Mitogenicity", "setting": "[3]", "result": "216 percentage of control (EGF)"}]}
{"substance": "EGF-A43: EGF mutein with Ala at position 43 (Glu43 replaced)", "values": [{"measurement": "Mitogenicity", "setting": "[3]", "result": "63 percentage of control (EGF)"}]}
{"substance": "EGF-B: EGF-D wherein the C-terminal arg-leu has been removed (NSDSECPLSHDGYCLHDGVCMYIEALDKYACNCVVGYIGERCQYRDLKWWE; not fully specified; Epidermal growth factor; UniProt P01133 971-1021, looked up, fragment)", "values": [{"measurement": "EGF activity", "setting": "[4]", "result": "full EGF activity"}]}
{"substance": "EGF-D: 52-amino acid sequence obtained by removing the C-terminal arg of EGF (NSDSECPLSHDGYCLHDGVCMYIEALDKYACNCVVGYIGERCQYRDLKWWEL; not fully specified; Epidermal growth factor; UniProt P01133 971-1022, looked up, fragment)", "values": [{"measurement": "EGF activity", "setting": "[4]", "result": "full EGF activity"}, {"measurement": "stability on storage", "setting": "[5]", "result": "stable"}]}
